According to US11413261B2, “Pharmaceutical composition for treating cancer comprising lactate metal salt” (METIMEDI PHARMACEUTICALS CO., LTD, priority 2014, dated 2022):

Tests used:
[1] = tested on: human kidney cancer cell line (Caki-1); experiment: Colony-forming ability, anticancer drug in combination with calcium lactate (6-well plates); assay type: cell-based; conditions: 2.5 mM calcium lactate alone, vs control
Experimental: Human kidney cancer cell line (Caki-1) with the cell number of 1×10^3 cells were seeded into an RPMI1640 medium in each of 6-well plates. After one day, the medium was replaced with fresh medium and the cells were treated with 0.3 nM, 0.5 nM, and 1 nM Everolimus alone or treated with various concentrations (0.3 nM, 0.5 nM, and 1 nM) of Everolimus in combination with 2.5 mM calcium lactate. Then, the colony-forming abilities of the cells were compared. In this case, a human kidney cancer cell line (Caki-1) untreated with any drug was used as a control group (FIGS. 53a and 53b).

[2] = tested on: human breast cancer cell line (MCF-7) showing a resistance to Trastuzumab; experiment: Colony-forming ability, Trastuzumab in combination with calcium lactate (6-well plates); assay type: cell-based; conditions: Trastuzumab-resistant MCF-7; 2.5 mM calcium lactate alone; vs control
From the text: Then, the colony-forming abilities of the cells were compared. In this case, a human breast cancer cell line (MCF-7) untreated with any drug was used as a control group (FIGS. 54a and 54b).

[3] = Structure and binding energy analysis of metal lactate salts; assay type: physicochemical; conditions: as compared to sodium lactate and potassium lactate (FIG. 1)
From the text: Calcium carbonate, sodium carbonate, or potassium carbonate was reacted with lactate so as to obtain metal lactate salt (calcium lactate, sodium lactate, or potassium lactate) solutions, respectively. Each of them was filtered, dried, and pulverized so as to obtain metal lactate salt (calcium lactate, sodium lactate, or potassium lactate) in the form of powder. Then, the structure and binding energy of the obtained metal lactate salts (calcium lactate, sodium lactate, or potassium lactate) were analyzed (FIG. 1).

PARP [4] = experiment: PARP protein expression in HCT-116 treated with calcium lactate, IS, CA alone or in combination; assay type: cell-based, human; conditions: 5 mM calcium lactate alone, 24 hours
Experimental: The protein expression levels of PARP expressed in the colorectal cancer cell line were compared (FIG. 9) after a human colorectal cancer cell line (HCT-116) was treated individually or in combination for 24 hours with 5 mM calcium lactate, 5-indane sulfornamide (IS) as an inhibitor of carbonic anhydrase, or cinnamic acid (CA) as an inhibitor of MCT-4 which is a pathway of lactate. In this case, an untreated cancer cell line was used as a control group.

cancer cell = experiment: Dissociation of metal lactate salts to lactate in a cancer cell; assay type: cell-based
[5] = tested on: breast cancer cell lines (MCF-7 and MDA-MB231); experiment: Cell migration of breast cancer cell lines; assay type: cell-based; conditions: 2.5 mM, vs untreated
Experimental: A colorectal cancer cell line HCT-116 with the cell number of 4×10^5 cells was inoculated into a culture container at the center of which an ibidi culture insert having a thickness of 500 μm was placed, and treated with 2.5 mM calcium lactate and then cultured for 24 hours. Then, the insert was removed and further cultured for 12 hours to analyze migration of the cancer cells to a site where the insert was removed using a JuLi Br, Live cell analyzer (NanoEnTek Inc., South Korea) (FIG. 18). In this case, a colorectal cancer cell line cultured without treating with calcium lactate was used as a control group.
Using the same method as Example 8-1, with breast cancer cell lines (MCF-7 and MDA-MB231) instead of the colorectal cancer cell line, an effect of calcium lactate on migration of the breast cancer cell lines was examined (FIG. 19).

VEGF = VEGF expression in tumor tissues of animal model; assay type: in vivo, Balb/c mice; conditions: HT-29 tumor tissue
Experimental: A colorectal cancer cell (HT-29) cultured in an RPMI1640 medium and then diluted with PBS was subcutaneously implanted into the flank of Balb/c mice. The mice were bred until the colorectal cancer cell grew to about 5 mm. Then, four groups were set up; a control group untreated with calcium lactate for 30 days, an experimental group 1 (peroral, P.O.) administered with 2.5 mM calcium lactate by oral administration, an experimental group 2 (intra tumor, I.T) injected with 2.5 mM calcium lactate around tumor, and an experimental group 3 (subcutaneous, S.C) subcutaneously injected with 25 mM calcium lactate (FIG. 27).
(§1) Colorectal cancer tissues were extracted from the mice of the control group or the experimental group 1 set up in Example 10-1, and expression levels of HIF-1α and VEGF involved in metastasis, invasion, and angiogenesis of tumor expressed therein were compared (FIG. 29). In this case, GAPDH was used as internal control groups.
as §1, with “group 2” for “group 1”, “tumor” for “tumor expressed”, “(FIG. 31).” for “(FIG. 29).”

[6] = tested on: human colorectal cancer cell line HCT-116; conditions: 5 mM calcium lactate individually, 10 days
GLUT 1 and HK2 = GLUT 1 and HK2 expression under hypoxia (real-time PCR, Western blot); assay type: cell-based, human; conditions: HCT-116 and HT-29; hypoxia condition
Experimental: Human colorectal cancer cell lines (HCT-116 and HT-29) were cultured under normoxia or hypoxia condition. The cell lines cultured under the hypoxia condition were treated with calcium lactate, and then, expression levels of GLUT 1 and HK2 in each of the cultured cell lines were compared at the mRNA and protein expression levels (FIG. 7).

β-catenin = β-catenin and activated β-catenin protein expression in breast cancer cell lines; assay type: cell-based, human; conditions: MCF-7 and MDA-MB-231; with increasing concentration
Experimental: Using the same method as that of Example 3-1 the expression levels of β-catenin and activated β-catenin depending on the concentration of calcium lactate were compared at the protein expression level (FIG. 6) with a human breast cancer cell line (MCF-7) cultured in a cancer cell culture medium (RPMI1640 medium including 10% FBS and 1% penicillin/streptomycin) at 37° C. with 5% CO2 and a human breast cancer cell line (MDA-MB-231) cultured in another cancer cell culture medium (DMEM medium including 10% FBS and 1% penicillin/streptomycin) at 37° C. with 5% CO2.

PARP [7] = experiment: PARP protein expression in melanoma cell lines; assay type: cell-based, human; conditions: SKMEL-02 and SKMEL-28; with increasing concentration (0-10 mM), 12 hours
Experimental: Each of human melanoma cell lines (SKMEL-02 and SKMEL-28) cultured in a cancer cell culture medium (RPMI1640 medium including 10% FBS and 1% penicillin/streptomycin) at 37° C. with 5% CO2 was treated with 0 mM, 0.5 mM, 1.0 mM, 2.5 mM, 5.0 mM, or 10 mM calcium lactate for 12 hours. Then, protein expression levels of PARP expressed in the melanoma cell lines were compared (FIG. 10).

## CC(O)C(=O)[O-].CC(O)C(=O)[O-].[Ca+2] (stereo not shown) [calcium lactate]
[1]
  colony-forming ability: suppressed
[2]
  colony-forming ability: decreased
[3]
  binding energy: relatively high binding energy
PARP [4]
  protein expression levels of PARP: decreased
Cancer cell
  dissociation to lactate in a cancer cell: can be dissociated to lactate
[5]
  cell migration (metastatic capacity): relatively low levels of metastasis
VEGF; experimental group 1, 2.5 mM oral administration
  expression of VEGF: inhibited
VEGF; experimental group 2, 2.5 mM injected around tumor
  expression of VEGF: inhibited
[6]
  survival rate: about 60%
GLUT 1 and HK2
  expression levels of GLUT 1 and HK2 (activation of glycolysis): reduced
β-catenin
  protein expression levels of activated β-catenin: decreased
  protein expression levels of β-catenin: decreased
PARP [7]
  protein expression levels of PARP: decreased
